Results on one molecule are retold here after patent US11542475B2, “3D microphysiologic system” (Northwestern University, priority 2014, dated 2023).

Test [1] relates to human fallopian fimbriae FTE. Nature of the test: 3D human fimbriae culture: FTE proliferation by BrdU labeling. The test is classed as cell-based. The conditions noted are these: insulin 5 μg/ml (ITS), H2O2 1 mM, E2 10 nM, n=6. The procedure: (§1) Tissues were micro-dissected in alpha-MEM (Gibco, Carlsbad, Calif.) with 1% penicillin-streptomycin (Invitrogen, Carlsbad, Calif.). Individual fimbriae were separated into ˜50 mm^3 pieces. A portion of the tissue was fixed in 2% paraformaldehyde for use as an uncultured control. For optimization studies, fimbriae were cultured without matrix, encapsulated in 0.5% alginate, or encapsulated in 0.5% alginate with 1 mg/ml collagen and 0.1% fibronectin, as previously described for murine cultures (King et al. J Vis Exp. 2011.; herein incorporated by reference in its entirety). For subsequent treatments, 0.5% alginate encapsulated fimbriae were randomly assigned to treatment groups, with at least five fimbriae per condition, per patient, in a 24-well plate containing alpha-MEM and 1% penicillin-streptomycin. […] Prior to fixation, fimbriae were labeled with 10 μM bromodeoxyurine (BrdU, Sigma-Aldrich) for 24 hours to denote proliferating cells. Fimbriae cultures were fixed (2% paraformaldehyde) followed by dehydration in ethanol and xylene, and embedment in paraffin.
Sections (5 μm) were cut and stained via hematoxylin and eosin for morphological analysis or immunohistochemistry was performed to localize proteins of interest as previously described (King et al. Endocr Relat Cancer. 2011. 18:627-42.; herein incorporated by reference in its entirety). Slides were rehydrated through an ethanol gradient, prior to 0.1M sodium citrate retrieval and peroxidase block. Tissues probed for BrdU were exposed to 4M HCl and 0.1M NaB4O7(Fisher Scientific) to denature DNA. All immunohistochemical reagents were obtained from Vector Laboratories, Inc (Burlingame, Calif.) unless otherwise stated. Tissues were blocked in 3% bovine serum albumin (Gemini, West Sacramento, Calif.)-TBS/10% serum and incubated with a primary antibody 1:50 acetylated tubulin (Cell Signaling, Cambridge, Mass.); 1:200 BrdU (AbCam, Cambridge, Mass.); 1:100 cytokeratin 8 (CK8, Developmental Studies Hybridoma Bank, Iowa City, Iowa); 1:50 p53 (Santa Cruz, Santa Cruz, Calif.); 1:100 PAX8 (Proteintech, Chicago, Ill.); 1:100 pH2AX (Cell Signaling); or 1:75 PR (Santa Cruz)) overnight at 4°. Tissues were washed in TBS-0.1% Tween and incubated with a secondary antibody (1:200), before being probed with ABC peroxidase standard, followed by detection with 3,3′-diaminobenzidine (DAB) and counterstained with hematoxylin.
Immunohistochemistry images were taken via a Nikon E600 microscope, DXM1200 digital camera and NIS Elements software (Nikon Instruments, Melville, N.Y.). For proliferation analysis, concurrent sections were stained for CK8 and BrdU. BrdU sections were imaged and epithelial cells (CK8 positive) were quantified for proliferation via ImageJ software (NIH, Bethesda, Md.). At least three fimbriae with 200 or more FTE were quantified for each treatment. […] Samples with p53 expression were quantified utilizing adjacent sections stained for the secretory cell marker PAX8 in a qualitative manner as described.
Background: Dividing cells build labelled thymidine or BrdU into new DNA.

Test [2] concerns IL8. Kind of test: ELISA of fallopian culture medium: IL8. The conditions noted are these: 10 nM E2, 7 days, conditioned medium, n=7. The test is classed as cell-based, human. The procedure:
as §1, with “Fimbriae cultures were fixed (2% paraformaldehyde) followed by dehydration in ethanol and xylene, and embedment in paraffin.” left out
IL8, VEGF-A, and FGF2 were detected in fallopian culture medium by enzyme-linked immunosorbent assay for human IL8 (EMD Millipore, Billerica, Mass., USA), VEGF-A (RayBiotech, GA, USA), or FGF2 (Abcam) respectively using the manufacturers' protocols. […] Results were normalized to total protein content as determined by western blotting and Ponceau staining to account for difference in tissue size between treatment groups. […]
Background: An ELISA detects its analyte on a solid surface through an enzyme-linked reagent.

Test [3] deals with IGF1 secretion by human fallopian epithelium. Kind of test: hIGF1 immunoblot of fallopian epithelium conditioned medium. The test is classed as cell-based. How it is done:
Human fallopian tissue was obtained from routine hysterectomies from women in their reproductive years (ages range from 26 to 50 years old) and who had not undergone exogenous hormonal treatment for at least three months prior to surgery. Informed consent was obtained from each patient and approval granted by the ethics committee of the Northwestern University. Human fallopian tissue was kept in the DMEM/F12 medium with 10% FBS on ice and processed within 24 hours. The tissue was washed with warm PBS solution two times before being transferred into warm dissection medium (Liebowitz 15 with 0.5% P/S and 10% FBS). After cleaning connective tissue from outside of the fallopian tissue, the fallopian tube was cut open and the inner epithelia layer was mechanically dissected using forceps. […] Tissue was cultured on 0.4 μm pore Millicell inserts (PICM03050, EMD Millipore Co, Billerica, Mass., USA) twelve-well plates with culture medium in a 37° C. and 5% CO2 incubator. Estrogen (E2) and progesterone (P4) used in tissue culture experiments were purchased from Sigma (St. Louis, Mo.).
Cultured human fallopian epithelia layers were homogenized with a minipestle in ice-cold lysis buffer (20 mM Tris-HCl, pH 8.0, 137 mM NaCl, 10% glycerol, 1% NP-40, 2 mM EDTA). Lysate normalized for protein content was loaded into NuPAGE 4-12% gradient Bis-Tris precast SDS-PAGE gels and transferred to a nitrocellulose membrane (Life Technologies, Carlsbad, Calif., USA). Blots were probed by polyclonal anti-OVGP1 antibody (LsBio, Cambridge, Mass.) overnight in 4° C. followed by anti-rabbit secondary antibody conjugated to horseradish peroxidase (Zymed, San Francisco, Calif.). Proteins were detected by ECL primer (GE HealthCare Life Sciences, Pittsburgh, Pa.) and exposed to X-ray film (Kodak, Rochester, N.Y.). The same blot was stripped using stripping buffer (Thermo Scientific, Hanover Park, Ill.) and re-probed with monoclonal anti-α-tubulin (Sigma, St. Louis, Mo.) followed by an anti-mouse secondary antibody conjugated to horseradish peroxidase. NIH ImageJ Imaging Software was used to quantify the density of western blot bands. Conditioned medium from fallopian epithelia cultures was collected and probed via western blot analysis using a polyclonal anti-hIGF1 antibody (abcam, Cambridge, Mass.). The blot was detected by the same method described above.
Fallopian epithelia layers cultured on […] inserts were pre-cultured in the alpha-MEM with 0.3% BSA, ITS and 1% P/S medium for two days. Cell culture medium was collected for the glucose ELISA assay (abcam, Cambridge, Mass.). Medium was diluted 1:500 and ELISA was performed according to the protocol provided by the kit. […]
On the technique in general: In western blotting, separated proteins are transferred to a membrane and probed.

In the case of `C[C@]12CC[C@@H]3c4ccc(O)cc4CC[C@H]3[C@@H]1CC[C@@H]2O` [E2, estradiol], the “FTE proliferation (percentage of total FTE cells, BrdU)” value in test [1] (2 days in culture) came to 5.2±2.3%; in test [1] (7 days in culture), 2.4±0.5%. Further, the “IL8 increase compared to vehicle control” value in test [2] is 22%±13%. For the same molecule, the IGF1 secretion result is recorded as “induced” in test [3] (7 days culture, 1 nM E2, P4 added to E2); “stimulated” in test [3] (28 days stepwise E2 and P4 treatment, P4 in the presence of E2).
